According to patent US12404262B2 (priority 2021, dated 2025):
Converted amounts (≈) assume the structure as drawn. Where two headings read alike, the source gives them in different places.

Legend:
[1] = physchem; conditions: 25 °C, thermodynamic from solid
[2] = Solubility in simulated intestinal fluids (FaSSIF/FeSSIF); conditions: 25 °C, thermodynamic from solid
[3] = 0.1N HCl, 1.0% DMSO, 24-hour incubation at ambient temperature, maximum theoretical 100 μM, first value of the cell
[4] = 1×PBS buffer (pH 7.4), 1.0% DMSO, 24-hour incubation at ambient temperature, maximum theoretical 100 μM, second value of the cell
[5] = fasted state simulated intestinal fluid (FaSSIF), fassif
[6] = fed state simulated intestinal fluid (FeSSIF), fessif

| SMILES | pH 2 solubility [3] [μM] | pH 7 solubility [4] [μM] | solubility ([1]; fassif) [µg/mL] | pH 2 solubility (pH 2) | pH 7 solubility (pH 7.4) | solubility ([1]; fessif) [µg/mL] | solubility [2, 5] [µg/mL] | solubility [2, 6] [µg/mL] |
| --- | --- | --- | --- | --- | --- | --- | --- | --- |
| CC(C)(C#Cc1ccc(-c2ccc(Cl)c3c(N(C(=O)NCCP(=O)(O)O)S(C)(=O)=O)nn(CC(F)(F)F)c23)c([C@H](Cc2cc(F)cc(F)c2)NC(=O)Cn2nc(C(F)(F)F)c3c2C(F)(F)[C@@H]2C[C@H]32)n1)S(C)(=O)=O [Compound 54, (2-(3-(4-chloro-7-(2-((S)-1-(2-((3bS,4aR)-5,5-difluoro-3-(trifluoromethyl)-3b,4,4a,5-tetrahydro-1H-cyclopropa[3,4]cyclopenta[1,2-c]pyrazol-1-yl)acetamido)-2-(3,5-difluorophenyl)ethyl)-6-(3-methyl-3-(methylsulfonyl)but-1-yn-1-yl)pyridin-3-yl)-1-(2,2,2-trifluoroethyl)-1H-indazol-3-yl)-3-(methylsulfonyl)ureido)ethyl)phosphonic acid] | 1 | 41 | 416 (≈ 372 µM) |  |  |  |  |  |
| CN(Cc1ccccc1OP(=O)(O)O)C(=O)N(c1nn(CC(F)(F)F)c2c(-c3ccc(C#CC(C)(C)S(C)(=O)=O)nc3[C@H](Cc3cc(F)cc(F)c3)NC(=O)Cn3nc(C(F)(F)F)c4c3C(F)(F)[C@@H]3C[C@H]43)ccc(Cl)c12)S(C)(=O)=O [Compound 67, 2-((3-(4-chloro-7-(2-((S)-1-(2-((3bS,4aR)-5,5-difluoro-3-(trifluoromethyl)-3b,4,4a,5-tetrahydro-1H-cyclopropa[3,4]cyclopenta[1,2-c]pyrazol-1-yl)acetamido)-2-(3,5-difluorophenyl)ethyl)-6-(3-methyl-3-(methylsulfonyl)but-1-yn-1-yl)pyridin-3-yl)-1-(2,2,2-trifluoroethyl)-1H-indazol-3-yl)-1-methyl-3-(methylsulfonyl)ureido)methyl)phenyl dihydrogen phosphate] |  |  | 536 | 2/79 μM | 2/79 μM | 707 |  |  |
| CN(CCN(C)C(=O)N(c1nn(CC(F)(F)F)c2c(-c3ccc(C#CC(C)(C)S(C)(=O)=O)nc3[C@H](Cc3cc(F)cc(F)c3)NC(=O)Cn3nc(C(F)(F)F)c4c3C(F)(F)[C@@H]3C[C@H]43)ccc(Cl)c12)S(C)(=O)=O)C(=O)OCOP(=O)(O)O [Compound 83, (phosphonooxy)methyl (2-(3-(4-chloro-7-(2-((S)-1-(2-((3bS,4aR)-5,5-difluoro-3-(trifluoromethyl)-3b,4,4a,5-tetrahydro-1H-cyclopropa[3,4]cyclopenta[1,2-c]pyrazol-1-yl)acetamido)-2-(3,5-difluorophenyl)ethyl)-6-(3-methyl-3-(methylsulfonyl)but-1-yn-1-yl)pyridin-3-yl)-1-(2,2,2-trifluoroethyl)-1H-indazol-3-yl)-1-methyl-3-(methylsulfonyl)ureido)ethyl)(methyl)carbamate] |  |  | 1950 (≈ 1580 µM) | 1/61 μM | 1/61 μM | 500 (≈ 404 µM) |  |  |
| CN(CC(=O)OCOP(=O)(O)O)C(=O)N(c1nn(CC(F)(F)F)c2c(-c3ccc(C#CC(C)(C)S(C)(=O)=O)nc3[C@H](Cc3cc(F)cc(F)c3)NC(=O)Cn3nc(C(F)(F)F)c4c3C(F)(F)[C@@H]3C[C@H]43)ccc(Cl)c12)S(C)(=O)=O [Compound 84, (phosphonooxy)methyl N-((4-chloro-7-(2-((S)-1-(2-((3bS,4aR)-5,5-difluoro-3-(trifluoromethyl)-3b,4,4a,5-tetrahydro-1H-cyclopropa[3,4]cyclopenta[1,2-c]pyrazol-1-yl)acetamido)-2-(3,5-difluorophenyl)ethyl)-6-(3-methyl-3-(methylsulfonyl)but-1-yn-1-yl)pyridin-3-yl)-1-(2,2,2-trifluoroethyl)-1H-indazol-3-yl)(methylsulfonyl)carbamoyl)-N-methylglycinate] | 5 | 16 | 154 (≈ 129 µM) |  |  |  |  |  |
| CC(C)(C#Cc1ccc(-c2ccc(Cl)c3c(N(C(=O)OCCNC(=N)N)S(C)(=O)=O)nn(CC(F)(F)F)c23)c([C@H](Cc2cc(F)cc(F)c2)NC(=O)Cn2nc(C(F)(F)F)c3c2C(F)(F)[C@@H]2C[C@H]32)n1)S(C)(=O)=O [Compound 123, 2-guanidinoethyl (4-chloro-7-(2-((S)-1-(2-((3bS,4aR)-5,5-difluoro-3-(trifluoromethyl)-3b,4,4a,5-tetrahydro-1H-cyclopropa[3,4]cyclopenta[1,2-c]pyrazol-1-yl)acetamido)-2-(3,5-difluorophenyl)ethyl)-6-(3-methyl-3-(methylsulfonyl)but-1-yn-1-yl)pyridin-3-yl)-1-(2,2,2-trifluoroethyl)-1H-indazol-3-yl)(methylsulfonyl)carbamate] | 78 | 71 |  |  |  |  | 120 (≈ 109 µM) | 153 (≈ 139 µM) |
| CC(C)(C#Cc1ccc(-c2ccc(Cl)c3c(N(C(=O)OC(CC(=O)O)CC(=O)O)S(C)(=O)=O)nn(CC(F)(F)F)c23)c([C@H](Cc2cc(F)cc(F)c2)NC(=O)Cn2nc(C(F)(F)F)c3c2C(F)(F)[C@@H]2C[C@H]32)n1)S(C)(=O)=O [Compound 125, 3-(((4-chloro-7-(2-((S)-1-(2-((3bS,4aR)-5,5-difluoro-3-(trifluoromethyl)-3b,4,4a,5-tetrahydro-1H-cyclopropa[3,4]cyclopenta[1,2-c]pyrazol-1-yl)acetamido)-2-(3,5-difluorophenyl)ethyl)-6-(3-methyl-3-(methylsulfonyl)but-1-yn-1-yl)pyridin-3-yl)-1-(2,2,2-trifluoroethyl)-1H-indazol-3-yl)(methylsulfonyl)carbamoyl)oxy)pentanedioic acid] | 14 | 68 |  |  |  |  | 617 (≈ 540 µM) | 42 (≈ 36.8 µM) |
| CC(C)(C#Cc1ccc(-c2ccc(Cl)c3c(N(C(=O)OCCC(C(=O)O)C(=O)O)S(C)(=O)=O)nn(CC(F)(F)F)c23)c([C@H](Cc2cc(F)cc(F)c2)NC(=O)Cn2nc(C(F)(F)F)c3c2C(F)(F)[C@@H]2C[C@H]32)n1)S(C)(=O)=O [Compound 126, 2-(2-(((4-chloro-7-(2-((S)-1-(2-((3bS,4aR)-5,5-difluoro-3-(trifluoromethyl)-3b,4,4a,5-tetrahydro-1H-cyclopropa[3,4]cyclopenta[1,2-c]pyrazol-1-yl)acetamido)-2-(3,5-difluorophenyl)ethyl)-6-(3-methyl-3-(methylsulfonyl)but-1-yn-1-yl)pyridin-3-yl)-1-(2,2,2-trifluoroethyl)-1H-indazol-3-yl)(methylsulfonyl)carbamoyl)oxy)ethyl)malonic acid] | 1 | 5 |  |  |  |  | 21 (≈ 18.4 µM) | 218 (≈ 191 µM) |
| CC(C)(C#Cc1ccc(-c2ccc(Cl)c3c(N(C(=O)OC[C@H](CC(=O)O)NC(=O)C(=O)O)S(C)(=O)=O)nn(CC(F)(F)F)c23)c([C@H](Cc2cc(F)cc(F)c2)NC(=O)Cn2nc(C(F)(F)F)c3c2C(F)(F)[C@@H]2C[C@H]32)n1)S(C)(=O)=O [Compound 131] | 1 | 73 |  |  |  |  | 816 (≈ 688 µM) | 427 (≈ 360 µM) |
| C[C@@H](C(=O)O)N(CCOC(=O)N(c1nn(CC(F)(F)F)c2c(-c3ccc(C#CC(C)(C)S(C)(=O)=O)nc3[C@H](Cc3cc(F)cc(F)c3)NC(=O)Cn3nc(C(F)(F)F)c4c3C(F)(F)[C@@H]3C[C@H]43)ccc(Cl)c12)S(C)(=O)=O)C(=O)OCOP(=O)(O)O [Compound 132, N-(2-(((4-chloro-7-(2-((S)-1-(2-((3bS,4aR)-5,5-difluoro-3-(trifluoromethyl)-3b,4,4a,5-tetrahydro-1H-cyclopropa[3,4]cyclopenta[1,2-c]pyrazol-1-yl)acetamido)-2-(3,5-difluorophenyl)ethyl)-6-(3-methyl-3-(methylsulfonyl)but-1-yn-1-yl)pyridin-3-yl)-1-(2,2,2-trifluoroethyl)-1H-indazol-3-yl)(methylsulfonyl)carbamoyl)oxy)ethyl)-N-(((phosphonooxy)methoxy)carbonyl)-L-alanine] | 1 | 79 | 1630 (≈ 1270 µM) |  |  |  |  |  |
| CN(CCOC(=O)N(c1nn(CC(F)(F)F)c2c(-c3ccc(C#CC(C)(C)S(C)(=O)=O)nc3[C@H](Cc3cc(F)cc(F)c3)NC(=O)Cn3nc(C(F)(F)F)c4c3C(F)(F)[C@@H]3C[C@H]43)ccc(Cl)c12)S(C)(=O)=O)C(=O)OCOP(=O)(O)O [Compound 133, (phosphonooxy)methyl (2-(((4-chloro-7-(2-((S)-1-(2-((3bS,4aR)-5,5-difluoro-3-(trifluoromethyl)-3b,4,4a,5-tetrahydro-1H-cyclopropa[3,4]cyclopenta[1,2-c]pyrazol-1-yl)acetamido)-2-(3,5-difluorophenyl)ethyl)-6-(3-methyl-3-(methylsulfonyl)but-1-yn-1-yl)pyridin-3-yl)-1-(2,2,2-trifluoroethyl)-1H-indazol-3-yl)(methylsulfonyl)carbamoyl)oxy)ethyl)(methyl)carbamate] | 1 | 81 | 194 (≈ 159 µM) |  |  |  |  |  |
| CC(C)(C#Cc1ccc(-c2ccc(Cl)c3c(N(C(=O)OCCN(CC(=O)O)C(=O)OCOP(=O)(O)O)S(C)(=O)=O)nn(CC(F)(F)F)c23)c([C@H](Cc2cc(F)cc(F)c2)NC(=O)Cn2nc(C(F)(F)F)c3c2C(F)(F)[C@@H]2C[C@H]32)n1)S(C)(=O)=O [Compound 134] | 1 | 100 | 2640 (≈ 2080 µM) |  |  |  |  |  |
